Assay: Anti-HIV Activity: Previously, a series of two-fold dilution on test samples were carried out in a 96-well plate (50 μL/well). Two plates were made for measuring anti-HIV activity and measuring cytotoxicity. For each agent, measurement in duplicate was carried out. An MT-4 cell suspension of 2.5×10^5/mL was dispensed at 100 μL/well onto the 96-well plate containing the test samples. An HIV virus solution was dispensed at 50 μL/well onto the 96-well plate containing the test samples and the cell. To the plate for measuring cytotoxicity, a culture solution was dispensed at 50 μL/well. It was mixed by a plate mixer, and then incubated in a CO2 incubator for 4 days. […] Thirty microliters of a MTT (3-(4,5-dimethylthiazol-2-yl)-2,5-diphenyltetrazolium bromide) solution was dispensed to each well.A reaction was allowed to occur in a CO2 incubator for an hour. From each well, 150 μL of the supernatant was removed such that cells are not sucked. One-hundred and fifty microliters of a cell lysis solution was added thereto, and then it was mixed well by a plate mixer until the whole cells are lysed. The mixed 96-well plates were measured by a microplate reader at two wavelengths, 560 nm/690 nm. Based on the following calculation formula, 50% HIV inhibition concentration (EC50) was calculated.
Conditions: MT4

Row | Structure (SMILES) | EC50
1 | C[C@H]1CCN(C2CC2)[C@@H]2Cn3cc(-c4nnc(Cc5ccc(F)cc5F)s4)c(=O)c(OCc4ccccc4)c3C(=O)N12 | 3 nM
2 | C[C@H]1CCO[C@@H]2Cn3cc(-c4nnc(Cc5ccc(F)cc5F)s4)c(=O)c(O)c3C(=O)N12 | 2.1 nM
3 | C[C@H]1CCO[C@@H]2Cn3cc(-c4nnc(Cc5c(F)cc(F)cc5F)s4)c(=O)c(O)c3C(=O)N12 | 1.4 nM
4 | COCCN1CN(CC(C)C)n2cc(C(=O)NNC(=S)Cc3ccc(F)cc3F)c(=O)c(O)c2C1=O | 3.4 nM
5 | CCN1CN(CCOC)C(=O)c2c(O)c(=O)c(-c3ncc(Cc4cccc(Cl)c4F)s3)cn21 | 8.7 nM
6 | C[C@@H]1C[C@@H](C)N2C(=O)c3c(O)c(=O)c(-c4nnc(Cc5ccc(F)cc5F)s4)cn3C[C@@H]2O1 | 2.7 nM
7 | O=C1c2c(O)c(=O)c(-c3ncc(Cc4ccc(F)cc4F)s3)cn2C[C@@H]2CCCCN12 | 11 nM
8 | C[C@@H]1CCC2C(=O)c3c(O)c(=O)c(-c4ncc(Cc5ccc(F)cc5F)s4)cn3C[C@@H]2O1 (stereo partly specified) | 7.4 nM
9 | C[C@H]1CCO[C@@H]2Cn3cc(-c4nnc(Cc5ccc(F)c(Cl)c5F)s4)c(=O)c(O)c3C(=O)N12 | 2.3 nM
10 | C[C@@H]1C[C@@H](C)N2C(=O)c3c(O)c(=O)c(-c4nnc(Cc5cccc(Cl)c5F)s4)cn3C[C@@H]2O1 | 2.8 nM
11 | O=C1c2c(O)c(=O)c(-c3nnc(Cc4ccc(F)cc4F)s3)cn2C[C@H]2O[C@@H]3CCC[C@@H]3N12 | 1.6 nM

Reference: ChEMBL document CHEMBL5726485, “Polycyclic pyridone derivative having integrase inhibitory activity” (2019)
